Patent US20240318143A1, “POST-PROCESSING OF BIOLOGICAL SCAFFOLDS” (Lung Biotechnology PBC, priority 2023, published 2024)

tested on: PAECs; assay: PAEC attachment and morphology after 24 hours on discs surface modified with peptides (FIGS. 8A-10G, FIJI analysis); assay type: cell-based; conditions: 24 hours after seeding, surface modification at 2 μmol/cm^2 and 0.2 μmol/cm^2 (Tests 1-3)
Experimental: For the experiments in FIGS. 7A-7S, 18 multi-wells were washed in 70% RA. The multi-wells were split into 6 groups of surface modification, which were P/G/A/B/F, PHSRNKRGD (SEQ ID NO: 9) (referred to as “PHK” in the figures), AG73, GFOGER (SEQ ID NO: 10), BM-Binder, and FN-Binder. Surface modification was conducted with the peptide solutions in Table 4. Peptides were prepared at 2 μmol/cm^2 concentrations for surface modification, but the actual concentration was adjusted for the thiol concentration. Following surface modification, wells were seeded with PAECs at a concentration of 625000 per cm^2. 24 hours after seeding, the wells were fix stained and imaged to quantify cell morphology. Model surface area was 10.1 cm^2.
FIGS. 8A-10G provide data on experiments to compare cell seeding and proliferation on surfaces with single peptide or combination peptide modification at different concentrations, 2 μmol/cm^2 and 0.2 μmol/cm^2. The solutions used for peptide modification had the actual peptide concentrations noted in Table 5.
(§1) FIGS. 8A-8G illustrate PAEC morphology after 24 hours on discs surface modified with various peptides at 2 μmol/cm^2 concentration according to Test 1. FIG. 8A are stained disk scans of PAECs cultured on 6 different surface modification peptides. FIGS. 8B-8G are graphs of FIJI analysis of circularity frequency distribution.
as §1, with “9A-9G” for “8A-8G”, “concentration adjusted to the volume used in the PGABF′ condition” for “concentration”, “2.” for “1.”, “9A” for “8A”, “9B-9G” for “8B-8G”
FIGS. 10A-10G illustrate PAEC morphology after 24 hours on discs surface modified with various peptides at 0.2 μmol/cm^2 concentration according to Test 3. FIG. 10A are stained disk scans of PAECs cultured on 6 different surface modification peptides. […] FIJI analysis is a method of quantifying stained disk scans. […]

Sequence | Cell attachment and morphology
GCREISAFLGIPFAEPPMGPRRFLPPEPKKP [B] | little cell attachment and those that were attached were round with little to no elongation
GCREKKRKRLQVQLSIRT [A, laminin-derived peptide recognized by syndecans] | some cells that were elongated but that did not have full stretching as seen in other test conditions, and an increase in rounder cells
GCREKKTLQPVYEYMVGV [F] | little cell attachment and those that were attached were round with little to no elongation
